Experimental data as given in US11351142B2, “Composition and method for treating neuronal ceroid lipofuscinosis” (Rush University Medical Center, priority 2012, dated 2022).

How the values were obtained:
[1] = test system: TPP1; assay: Western blot for TPP1 in mouse primary neurons; assay type: cell-based; conditions: neurons from cortex, hippocampus, striatum; 25 μM gemfibrozil, 24 hrs
Experimental: Fetal (E18-E16) mouse neurons were prepared as previously described (23) with modifications. Whole brains were removed and cortical, hippocampal, striatal and cerebellar fractions were dissected in serum free Neurobasal media. The cells were washed by centrifugation three times at 1200 rpm for 10 min, the pellet dissociated and the cells plated at 10% confluence in 8-well chamber slides pre-treated for >2 hr with Poly-D-Lysine (Sigma, St. Louis, Mo.). After 4 min, the non-adherent cell suspension was aspirated and […] complete Neurobasal media (Invitrogen) supplemented with 2% B27 was added to each well. The cells were incubated for 4 days prior to experimentation. […] The cells were stimulated with gemfibrozil in Neurobasal media supplemented with 2% B27 minus antioxidants (Invitrogen) for 24 hr prior to methanol fixation and immunostaining.
Western blotting was conducted as described earlier (27,28) with modifications. Briefly, cells were scraped in double-distilled H20 and sodium dodecyl sulfate (SDS), electrophoresed on NuPAGE® Novex® 4-12% Bis-Tris gels (Invitrogen) and proteins transferred onto a nitrocellulose membrane (Bio-Rad) using the Thermo-Pierce Fast Semi-Dry Blotter. […]
Protein blots were analyzed using ImageJ (NIH, Bethesda, Md.) and bands were normalized to their respective β-actin loading controls. […]

[2] = test system: TPP1; assay: TPP1 immunofluorescence of brain sections after oral gemfibrozil in WT, PPARα−/− and PPARβ−/− mice; assay type: in vivo, mouse; conditions: oral 7.5 mg/kg body wt/day, 21 days
Excerpt: After 21 days of treatment, mice were sacrificed and their brains fixed, embedded, and processed. Sections were made from different brain regions and for immunofluorescence staining on fresh frozen sections, anti-mouse TPP1 (1:200), goat anti mouse GFAP (1:100) were used. The samples were mounted and observed under Olympus BX41 fluorescence microscope (26).
Once we confirmed the involvement of PPARα in the fibrate mediated upregulation of TPP1 protein, we further checked whether the same results could be replicated in in vivo settings. WT, PPARα^−/− and PPARβ^−/− mice from same background were treated orally for 21 days with 7.5 mg/kg body wt/day gemfibrozil dissolved in 0.1% methylcellulose, which was also used as vehicle. At the end of the treatment, the mice were killed and different regions of their brain, viz. Substantia nigra pars compacta, cortex, hippocampus, and dentate gyrus were sectioned, and immunofluorescence was performed for the presence of TPP1.

[3] = test system: tripeptidyl peptidase 1 (TPP1); assay: Double-labeling for TPP1 and β-tubulin (FIG. 11); assay type: cell-based; conditions: 25 μM gemfibrozil and 10 μM fenofibrate, 24 hours
Excerpt: DAPI was used to visualize nuclei. Results represent 3 independent experiments.

[4] = test system: TPP1; assay: Immunofluorescence for TPP1 in mouse primary astrocytes; assay type: cell-based
Experimental: Astroglia were isolated from mixed glial cultures as described (17,18) according to the procedure of Giulian and Baker (19). Briefly, on day 9, the mixed glial cultures were washed three times with Dulbecco's modified Eagle's medium/F-12 and subjected to shaking at 240 rpm for 2 h at 37° C. on a rotary shaker to remove microglia. After 2 days, the shaking was repeated for 24 h for the removal of oligodendroglia and to ensure the complete removal of all nonastroglial cells. The attached cells were seeded onto new plates for further studies. Immunocytochemistry was performed as described earlier (25). Briefly, 8 well chamber slides containing mouse primary astrocytes, mouse neurons, human primary astrocytes or SH-SY5Y cells were cultured to 70-80% confluence were fixed with chilled Methanol (Fisher Scientific, Waltham, Mass.) overnight, followed by two brief rinses with filtered PBS. Samples were blocked with 2% BSA (Fisher Scientific) in PBS containing Tween 20 (Sigma) and Triton X-100 (Sigma) for 30 min and incubated at room temperature under shaking conditions for 2 hr in PBS containing the following anti-mouse primary antibodies: […] Santa Cruz Biotech, Santa Cruz, Calif.), GFAP, (1:100; Santa Cruz), and 3-tubulin (1:5000; Millipore). […] The samples were run in an EtOH and Xylene (Fisher) gradient, mounted and observed under Olympus BX41 fluorescence microscope.

Cc1ccc(C)c(OCCCC(C)(C)C(=O)O)c1 [gemfibrozil]
increase in TPP1 protein (Western blot, densitometric quantification) [1]: 2-3 fold
TPP1 in the dentate gyrus and CA1 region of the hippocampus (mostly non-neuronal cells) ([2]; PPARβ−/− mice): increased
level of TPP1 in GFAP-positive astrocytes and tyrosine hydroxylase-positive neurons in the substantia nigra ([2]; PPARβ−/− mice): increased
level of TPP1 in GFAP-positive cortical astrocytes and NeuN-positive cortical neurons ([2]; PPARβ−/− mice): markedly increased
TPP1 in the dentate gyrus and CA1 region of the hippocampus (mostly non-neuronal cells) ([2]; WT mice): increased
level of TPP1 in GFAP-positive astrocytes and tyrosine hydroxylase-positive neurons in the substantia nigra ([2]; WT mice): increased
level of TPP1 in GFAP-positive cortical astrocytes and NeuN-positive cortical neurons ([2]; WT mice): markedly increased
lysosomal marker protein TPP1 (double-labeling) [3]: upregulation
TPP1 (immunofluorescence) ([4]; PPARα−/− astrocytes compared to WT and PPARβ−/− cells, 25 μM gemfibrozil and 10 μM fenofibrate, 24 hrs): little or no increase
TPP1 protein (immunofluorescence) ([4]; mouse primary astrocytes, different concentrations): dose dependant increase
